According to patent US6461997B1, “Triazole sulfones having herbicidal activity” (Monsanto Technology LLC, priority 1999, dated 2002):

tested on: SETFA (giant foxtail); test: Pre-plant incorporated (PPI) herbicidal activity, warm season; format: in vivo, Setaria faberi; conditions: PPI application, 10 g/ha
Procedure: (§1) In another set of tests, the pre-plant incorporated (PPI) activity of compounds of this invention was evaluated on the same species as for the pre-emergence tests described above. In the PPI tests the following procedure, designed to simulate PPI application, was used.
(§2) A pre-prepared topsoil mixture (described above) was placed in a pot and compacted to a depth of 1.0 to 1.25 cm from the top of the pot. Seeds of each of several monocotyledonous and dicotyledonous annual plant species were placed on top of the soil. A sufficient quantity of soil to cover the seeds and level fill the pot was weighed into an open container. A known amount of the test compound was dissolved or suspended in an organic solvent and applied by spraying to this cover soil. The cover soil was thoroughly mixed to distribute the test compound throughout the cover soil, and was then applied as a cover layer over the seeds. Untreated soil was used as a cover layer for control pots. After treatment the plants were placed in a greenhouse where they received 0.64 cm of overhead irrigation. All subsequent watering consisted of a light overhead mist and/or subirrigation as needed for germination and growth. Tables 9 and 10 below relate to warm season plant species which were placed after pre-emergence treatment in a greenhouse with a 30/21° C. day/night temperature regime. Tables 11 and 12 below relates to cool season plant species placed after pre-emergence treatment in a greenhouse or growth chamber with an 18/13° C. day/night temperature regime. Only the compounds of Examples 1, 6, 8, 11, 13 and 15-20 were included in PPI tests.
(§3) Approximately 14 days after planting and treating, the plants were observed and herbicidal efficacy recorded as percent inhibition by comparison with untreated plants.

SMILES	Percent inhibition SETFA [%]
CCN(CC)C(=O)n1cnc(S(=O)(=O)C(F)(F)C(F)F)n1 [Example 16]	80

same assay, conditions: PPI application, 30 g/ha

SMILES	Percent inhibition SETFA [%]
CCN(CC)C(=O)n1cnc(S(=O)(=O)C(F)(F)C(F)F)n1 [Example 16]	80

same assay, conditions: PPI application, 100 g/ha

SMILES	Percent inhibition SETFA [%]
CCN(CC)C(=O)n1cnc(S(=O)(=O)C(F)(F)C(F)F)n1 [Example 16]	100

same assay, conditions: PPI application, 300 g/ha

SMILES	Percent inhibition SETFA [%]
CCN(CC)C(=O)n1cnc(S(=O)(=O)C(F)(F)C(F)F)n1 [Example 16]	100

same assay, conditions: PPI application, 900 g/ha

SMILES	Percent inhibition SETFA [%]
CCN(CC)C(=O)n1cnc(S(=O)(=O)C(F)(F)C(F)F)n1 [Example 16]	100

same assay, conditions: pre-plant incorporated; lowest tested rate with 80% or greater inhibition; about 14 days

SMILES	PPI activity GR80, SETFA [g/ha]
CCN(CC)C(=O)n1cnc(S(=O)(=O)C(F)(F)C(F)F)n1 [Example 16]	10

tested on: BROTE (downy brome); test: Pre-plant incorporated (PPI) herbicidal activity, cool season; format: in vivo, Bromus tectorum; conditions: pre-plant incorporated; lowest tested rate with 80% or greater inhibition; about 14 days
Procedure: as §1, §2, §3

SMILES	PPI activity GR80, BROTE [g/ha]
CCN(CC)C(=O)n1cnc(S(=O)(=O)C(F)(F)C(F)F)n1 [Example 16]	300

same assay, conditions: weed, PPI application, 10 g/ha

SMILES	Percent inhibition BROTE [%]
CCN(CC)C(=O)n1cnc(S(=O)(=O)C(F)(F)C(F)F)n1 [Example 16]	0

same assay, conditions: weed, PPI application, 30 g/ha

SMILES	Percent inhibition BROTE [%]
CCN(CC)C(=O)n1cnc(S(=O)(=O)C(F)(F)C(F)F)n1 [Example 16]	0

same assay, conditions: weed, PPI application, 100 g/ha

SMILES	Percent inhibition BROTE [%]
CCN(CC)C(=O)n1cnc(S(=O)(=O)C(F)(F)C(F)F)n1 [Example 16]	35

same assay, conditions: weed, PPI application, 300 g/ha

SMILES	Percent inhibition BROTE [%]
CCN(CC)C(=O)n1cnc(S(=O)(=O)C(F)(F)C(F)F)n1 [Example 16]	40

same assay, conditions: weed, PPI application, 900 g/ha

SMILES	Percent inhibition BROTE [%]
CCN(CC)C(=O)n1cnc(S(=O)(=O)C(F)(F)C(F)F)n1 [Example 16]	90

tested on: PANDI (fall panicum); test: Pre-emergence herbicidal activity, warm season; format: in vivo, Panicum dichotomiflorum; conditions: GR80 = lowest tested rate (300, 100, 30, 10 g/ha) with 80% or greater inhibition; approx. 14 days after treating; 30/21° C.
Method in brief: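 Seeds sown in sterilised fertilised topsoil received surface-applied compound in 50:50 acetone/water, typically at 300, 100, 30 and 10 g/ha, then greenhouse-grown at 30/21° C (warm-season species) or 18/13° C (cool-season species). Percent inhibition versus untreated plants was scored at about 14 days, giving GR80; an asterisk marks activity short of 80% at the top rate.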

SMILES	Pre-emergence activity (GR80) PANDI [g/ha]
CCN(CC)C(=O)n1cnc(S(=O)(=O)C(F)(F)C(F)F)n1 [Example 16]	100

tested on: SETVI (green foxtail); test: Pre-plant incorporated (PPI) herbicidal activity, cool season; format: in vivo, Setaria viridis; conditions: pre-plant incorporated; lowest tested rate with 80% or greater inhibition; about 14 days
Procedure: as §1, §2, §3

SMILES	PPI activity GR80, SETVI [g/ha]
CCN(CC)C(=O)n1cnc(S(=O)(=O)C(F)(F)C(F)F)n1 [Example 16]	10

same assay, conditions: weed, PPI application, 10 g/ha

SMILES	Percent inhibition SETVI [%]
CCN(CC)C(=O)n1cnc(S(=O)(=O)C(F)(F)C(F)F)n1 [Example 16]	100

same assay, conditions: weed, PPI application, 30 g/ha

SMILES	Percent inhibition SETVI [%]
CCN(CC)C(=O)n1cnc(S(=O)(=O)C(F)(F)C(F)F)n1 [Example 16]	80

same assay, conditions: weed, PPI application, 100 g/ha

SMILES	Percent inhibition SETVI [%]
CCN(CC)C(=O)n1cnc(S(=O)(=O)C(F)(F)C(F)F)n1 [Example 16]	95

same assay, conditions: weed, PPI application, 300 g/ha

SMILES	Percent inhibition SETVI [%]
CCN(CC)C(=O)n1cnc(S(=O)(=O)C(F)(F)C(F)F)n1 [Example 16]	100

same assay, conditions: weed, PPI application, 900 g/ha

SMILES	Percent inhibition SETVI [%]
CCN(CC)C(=O)n1cnc(S(=O)(=O)C(F)(F)C(F)F)n1 [Example 16]	100

tested on: STEME (common chickweed); test: as above; format: in vivo, Stellaria media; conditions: pre-plant incorporated; lowest tested rate with 80% or greater inhibition; about 14 days
Procedure: as §1, §2, §3

SMILES	PPI activity GR80, STEME [g/ha]
CCN(CC)C(=O)n1cnc(S(=O)(=O)C(F)(F)C(F)F)n1 [Example 16]	300

same assay, conditions: weed, PPI application, 10 g/ha

SMILES	Percent inhibition STEME [%]
CCN(CC)C(=O)n1cnc(S(=O)(=O)C(F)(F)C(F)F)n1 [Example 16]	40

same assay, conditions: weed, PPI application, 30 g/ha

SMILES	Percent inhibition STEME [%]
CCN(CC)C(=O)n1cnc(S(=O)(=O)C(F)(F)C(F)F)n1 [Example 16]	75

same assay, conditions: weed, PPI application, 100 g/ha

SMILES	Percent inhibition STEME [%]
CCN(CC)C(=O)n1cnc(S(=O)(=O)C(F)(F)C(F)F)n1 [Example 16]	60

same assay, conditions: weed, PPI application, 300 g/ha

SMILES	Percent inhibition STEME [%]
CCN(CC)C(=O)n1cnc(S(=O)(=O)C(F)(F)C(F)F)n1 [Example 16]	60

same assay, conditions: weed, PPI application, 900 g/ha

SMILES	Percent inhibition STEME [%]
CCN(CC)C(=O)n1cnc(S(=O)(=O)C(F)(F)C(F)F)n1 [Example 16]	95
